Measured values as given in US9469878B2, “Methods of treating cancer comprising targeting NQO1” (The Board of Regents of the University of Texas System, priority 2010, dated 2016).
Where “and” joins values, the source holds several entries; their conditions need not be identical. Equal values may be shown once.

How the values were obtained:
PC-3 cells = assay: Relative DNA cell survival assay, β-lap with or without IR; type: cell-based, human; settings: for Equivalent dose of IR / Equivalent dose of β-Lap: Machado's model
Method: Relative DNA cell survival assays were assessed after various treatments. Briefly, cells were seeded at 5×10^3 per well in 48-well plates and allowed to attach overnight. […] DNA content was then determined by Hoeschst 33258 dye staining and fluorescence detection using a plate reader (Perkin-Elmer, Boston, Mass.) as described. Relative survival assays after combined treatment were confirmed by colony-forming ability assays as described. Results were reported as means±SE from at least three independent experiments. For relative survival data, different combinations of IR+β-lap exposures were fit with simple multi-target models in SigmaPlot for Windows Version 11.0. For synergy, a statistical definition of synergy (48) was used and calculations were performed by fitting experimental data with the Machado and Robinson model using the R code (47). The equitoxic doses listed in Table 1 were calculated by the parameters of the model of Machado and Robinson obtained in fitting.

H1993 = assay: β-lapachone lethality in NQO1 genotyped cancer cells; type: cell-based, human
Method: (§1) Cell lines, mostly from a 5-panel nonsmall cell lung cancer panel from the UT Southwestern SPORE, were assessed for NQO1 polymorphism status and then monitored for NQO1 enzyme assays using β-lapachone or the standard menadione substrates. Cell line responses to β-lapachone exposures (μM, 2 h) were then assessed and lethal doses causing 50% lethality with or without dicoumarol (40 μM) co-treatments were recorded. NQO1*2/*2 and *3/*3 polymorphisms were detected from NQO1 *1/*1 wild-type sequences by PCR-RFLP. Genomic DNA was extracted from the cells using Qiagen spin columns. Using previously described oligonucleotide primers, PCR products underwent gel electrophoresis. Final genotyping was determined based on the size and pattern of separated bands diagnostic for *1/*1 (wild-type), or polymorphic *2/*2 or *3/*3 NQO1 polymorphisms.

H322 = assay: as above; type: cell-based, human
Method: as §1

HCC2935 = assay: as above; type: cell-based, human
Method: as §1

HCC44 = assay: as above; type: cell-based, human
Method: as §1

MDA-MB-231/Breast = assay: as above; type: cell-based, human
Method: as §1

MDA-MB-468/Breast = assay: as above; type: cell-based, human
Method: as §1

H2882/NSCLC = assay: as above; type: cell-based, human
Method: (§2) LD50 responses were plotted as a function of NQO1 enzymatic levels. The notations, *1/*1 and *2/*2 represent the NQO1 status of each cell line as homozygous wild type (*1/*1) or homozygous polymorphic (*2/*2) genotypes. […] In (b), Kaplan-Meier survival curve of mice bearing orthotopic lung tumors implanted with *1/*1 A549 cells. Mice were treated intravenously (5 doses every other day) with β-lap-HPβ-CD or vehicle alone (HPβ-CD).
as §1, with “Cell line responses to β-lapachone exposures (μM, 2 h) were then assessed and lethal doses causing 50% lethality with or without dicoumarol (40 μM) co-treatments were recorded.” left out

H596/NSCLC = assay: as above; type: cell-based, human; settings: NQO1 genotype *2/*2, 2 h exposure
Method: as §2
as §1, with “Cell line responses to β-lapachone exposures (μM, 2 h) were then assessed and lethal doses causing 50% lethality with or without dicoumarol (40 μM) co-treatments were recorded.” left out

[1] = system: Human (shown) or mouse rbs; assay: Hemolysis of red blood cells; type: cell-based; settings: rbs incubated with HPβCD alone, HPβCD-β-lap, or β-lap alone in DMSO
Method: Human (shown) or mouse rbs were incubated with HPβCD alone or HPβCD-β-lap, or β-lap alone in DMSO.

NQO1 = NQO1 (Homo sapiens, UniProt P15559); assay: NADH recycling assay (NQO1 futile cycling); type: biochemical; set-up: S9 Supernatants were prepared from cells in mid-log to late log phase growth; endogenous in cells; host or cells: cancer cell lines, mostly from a non-small cell lung cancer panel (e.g. Calu-3); S9 supernatants; settings: in 5 min, NQO1 futile cycle
Method: Assays were performed with either purified NQO1 or S9 extracts from MCF-7:WS8, or other cancer or normal cells. For the assay using purified NQO1, […] of recombinant human NQO1 was mixed with 200-500 μM NADH in 50 mM potassium phosphate buffer, pH 7.0.

[2] = *2/*2, 2 h, + dicoumarol (40 μM)
[3] = NQO1 genotype *2/*2, 2 h exposure

Chain of NQO1 (P15559 whole entry): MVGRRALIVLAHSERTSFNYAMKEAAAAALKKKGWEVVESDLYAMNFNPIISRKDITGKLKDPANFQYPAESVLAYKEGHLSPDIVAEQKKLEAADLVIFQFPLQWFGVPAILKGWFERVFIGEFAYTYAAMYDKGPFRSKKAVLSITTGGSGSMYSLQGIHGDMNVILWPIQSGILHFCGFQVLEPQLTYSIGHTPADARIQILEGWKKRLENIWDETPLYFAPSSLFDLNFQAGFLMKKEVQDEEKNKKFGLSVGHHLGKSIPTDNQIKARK

For `CC1(C)CCC2=C(O1)c1ccccc1C(=O)C2=O` [β-Lap, 3,4-dihydro-2,2-dimethyl-2H-naphtho[1,2-b]pyran-5,6-dione], the “Exposure time sufficient to achieve maximal cytotoxicity” value (PC-3 cells; 4 μM β-lap) was ~120 min, the “β-lap dose with the same effect as the combination” value (PC-3 cells; 1 Gy+1 μM β-lap) was 4 µM and the “Equivalent dose of IR” value (PC-3 cells; IR 0 Gy + β-Lap 1 μM) was 0.6 Gy. The “Equivalent dose of β-Lap” value (PC-3 cells; IR 0 Gy + β-Lap 1 μM) was 1 µM, the “Equivalent dose of IR” value (PC-3 cells; IR 0 Gy + β-Lap 2 μM) was 1.2 Gy and the “Equivalent dose of β-Lap” value (PC-3 cells; IR 0 Gy + β-Lap 2 μM) was 2 µM. The “Equivalent dose of IR” value (PC-3 cells; IR 0 Gy + β-Lap 3 μM) was 1.7 Gy, the “Equivalent dose of β-Lap” value (PC-3 cells; IR 0 Gy + β-Lap 3 μM) was 3 µM and the “Equivalent dose of IR” value (PC-3 cells; IR 1 Gy + β-Lap 1 μM) was 1.7 Gy. The “Equivalent dose of β-Lap” value (PC-3 cells; IR 1 Gy + β-Lap 1 μM) was 4.1 µM, the “Equivalent dose of IR” value (PC-3 cells; IR 1 Gy + β-Lap 2 μM) was 2.1 Gy and the “Equivalent dose of β-Lap” value (PC-3 cells; IR 1 Gy + β-Lap 2 μM) was 5.6 µM. The “Equivalent dose of IR” value (PC-3 cells; IR 1 Gy + β-Lap 3 μM) was 2.7 Gy, the “Equivalent dose of β-Lap” value (PC-3 cells; IR 1 Gy + β-Lap 3 μM) was 6.8 µM and the “Equivalent dose of IR” value (PC-3 cells; IR 2 Gy + β-Lap 1 μM) was 2.6 Gy. The “Equivalent dose of β-Lap” value (PC-3 cells; IR 2 Gy + β-Lap 1 μM) was 7.9 µM, the “Equivalent dose of IR” value (PC-3 cells; IR 2 Gy + β-Lap 2 μM) was 3.1 Gy and the “Equivalent dose of β-Lap” value (PC-3 cells; IR 2 Gy + β-Lap 2 μM) was 9.6 µM. The “Equivalent dose of IR” value (PC-3 cells; IR 2 Gy + β-Lap 3 μM) was 3.6 Gy, the “Equivalent dose of β-Lap” value (PC-3 cells; IR 2 Gy + β-Lap 3 μM) was 11.5 µM and the “Equivalent dose of IR” value (PC-3 cells; IR 3 Gy + β-Lap 1 μM) was 3.7 Gy. The “Equivalent dose of β-Lap” value (PC-3 cells; IR 3 Gy + β-Lap 1 μM) was 12.5 µM, the “Equivalent dose of IR” value (PC-3 cells; IR 3 Gy + β-Lap 2 μM) was 4.1 Gy and the “Equivalent dose of β-Lap” value (PC-3 cells; IR 3 Gy + β-Lap 2 μM) was 14.5 µM. For the same compound, the “Equivalent dose of IR” value (PC-3 cells; IR 3 Gy + β-Lap 3 μM) was 4.6 Gy, the “Equivalent dose of β-Lap” value (PC-3 cells; IR 3 Gy + β-Lap 3 μM) was 16 µM and the “LD50 + DIC” value (H1993; H1993, *1/*1, 2 h, + dicoumarol (40 μM)) was >10 µM. The “β-Lap Lethality LD50” value (H1993; H1993, NQO1 genotype *1/*1, 2 h exposure) was 1.8 µM, the “LD50 + DIC” value (H322; H322, *1/*1, 2 h, + dicoumarol (40 μM)) was >20 µM and the “β-Lap Lethality LD50” value (H322; H322, NQO1 genotype *1/*1, 2 h exposure) was 5.7 µM. The “LD50 + DIC” value (HCC2935; HCC2935, *1/*3, 2 h, + dicoumarol (40 μM)) was >10 µM, the “β-Lap Lethality LD50” value (HCC2935; HCC2935, NQO1 genotype *1/*3, 2 h exposure) was 1.0 µM and the “LD50 + DIC” value (HCC44; HCC44, *1/*2, 2 h, + dicoumarol (40 μM)) was >10 µM. For the same compound, the “β-Lap Lethality LD50” value (HCC44; HCC44, NQO1 genotype *1/*2, 2 h exposure) was 2.8 µM, the “LD50 + DIC” value (MDA-MB-231/Breast; [2]) was >10 µM and the “β-Lap Lethality LD50” value (MDA-MB-231/Breast; [3]) was >10 µM. The “LD50 + DIC” value (MDA-MB-468/Breast; [2]) was >10 µM, the “β-Lap Lethality LD50” value (MDA-MB-468/Breast; [3]) was >10 µM and the “LD50 + DIC” value (H2882/NSCLC; [2]) was >40 µM. The “β-Lap Lethality LD50” value (H2882/NSCLC; [3]) was >20 µM, the “β-Lap Lethality LD50” value (H596/NSCLC) was >20 µM and >10 µM and the Hemolysis [1] was “hemolysis by HPβCD and not β-lapachone”. The “NAD(P)H used per mole of β-lap” value (NQO1) was > 60 mol.
